Test results from patent publication US10294207B2, “Pyrazole derivatives as TNIK, IKKϵ and TBK1 inhibitor and pharmaceutical composition comprising same” (GREEN CROSS CORPORATION, priority 2015, dated 2019).

Columns and labels:
[1] = target: T1, IKKε (Homo sapiens, UniProt Q14164); assay: IKKε inhibition, ADP-Glo Kinase Assay; type: biochemical; settings: luminometer
T1 construct: purchased Invitrogen PR8031B
T1 sequence (Q14164 1-716): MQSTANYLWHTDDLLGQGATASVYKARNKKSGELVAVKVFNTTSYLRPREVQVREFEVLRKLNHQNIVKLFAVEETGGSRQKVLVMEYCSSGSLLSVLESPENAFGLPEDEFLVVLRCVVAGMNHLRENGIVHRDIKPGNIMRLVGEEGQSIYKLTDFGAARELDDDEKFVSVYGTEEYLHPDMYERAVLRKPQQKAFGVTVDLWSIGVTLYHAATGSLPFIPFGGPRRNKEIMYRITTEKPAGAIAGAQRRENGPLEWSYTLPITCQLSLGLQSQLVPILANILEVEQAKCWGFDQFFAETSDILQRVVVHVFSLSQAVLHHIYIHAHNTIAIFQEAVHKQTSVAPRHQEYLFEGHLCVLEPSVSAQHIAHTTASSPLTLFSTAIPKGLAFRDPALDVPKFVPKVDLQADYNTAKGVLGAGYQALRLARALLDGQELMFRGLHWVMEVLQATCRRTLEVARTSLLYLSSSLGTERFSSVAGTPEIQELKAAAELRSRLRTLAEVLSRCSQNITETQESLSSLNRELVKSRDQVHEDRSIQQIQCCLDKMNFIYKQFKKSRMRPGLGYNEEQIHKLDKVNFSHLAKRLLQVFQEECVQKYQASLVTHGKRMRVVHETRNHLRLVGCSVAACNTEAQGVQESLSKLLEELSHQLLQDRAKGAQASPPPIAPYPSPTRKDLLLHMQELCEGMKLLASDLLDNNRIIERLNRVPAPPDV
Experimental: (§1) Inhibition activities on TNIK, IKKε and TBK1 were evaluated using the compounds of Examples 1 to 254.
(§2) The inhibition activities on TNIK, IKKε and TBK1 were measured by a luminometer, TNIK/IKKε/TBK1 Kinase Enzyme System (Promega, Ca# V4158; Invitrogen, PR8031B, Promega, Ca# V3991) and ADP-Glo Kinase Assay using ADP-Glo™ Kinase Analysis Kit (Promega, Ca# V9101) and a kinase reaction buffer [40 mM Tris(pH 7.5), 20 mM MgCl2, 0.1 mg/mL BSA] in accordance with the manufacturer's protocol.

[2] = target: T2, TBK1 (Homo sapiens, UniProt Q9UHD2); assay: TBK1 inhibition, ADP-Glo Kinase Assay; type: biochemical; settings: luminometer
T2 construct: purchased Promega V3991
T2 sequence (Q9UHD2 1-729): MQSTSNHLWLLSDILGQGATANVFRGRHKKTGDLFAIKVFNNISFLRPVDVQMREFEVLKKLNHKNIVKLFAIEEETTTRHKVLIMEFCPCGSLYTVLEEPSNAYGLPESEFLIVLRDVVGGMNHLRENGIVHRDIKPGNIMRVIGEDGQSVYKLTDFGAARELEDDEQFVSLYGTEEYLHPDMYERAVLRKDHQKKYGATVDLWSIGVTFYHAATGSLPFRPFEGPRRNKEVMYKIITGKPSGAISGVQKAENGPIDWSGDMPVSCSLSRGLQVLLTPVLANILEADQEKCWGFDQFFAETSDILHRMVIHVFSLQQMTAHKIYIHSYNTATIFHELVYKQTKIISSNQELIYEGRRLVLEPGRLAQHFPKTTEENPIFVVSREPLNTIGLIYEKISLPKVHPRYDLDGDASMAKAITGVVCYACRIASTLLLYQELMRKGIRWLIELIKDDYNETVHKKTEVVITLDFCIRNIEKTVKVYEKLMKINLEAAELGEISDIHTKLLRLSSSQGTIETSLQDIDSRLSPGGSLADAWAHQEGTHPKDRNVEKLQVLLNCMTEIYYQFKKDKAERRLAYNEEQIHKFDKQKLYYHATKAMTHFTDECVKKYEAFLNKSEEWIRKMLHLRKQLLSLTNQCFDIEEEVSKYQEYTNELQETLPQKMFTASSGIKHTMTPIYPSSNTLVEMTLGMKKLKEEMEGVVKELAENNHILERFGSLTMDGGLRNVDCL
Experimental: as §1, §2

SMILES: O=C(NCc1ccco1)c1ccc2[nH]nc(NC(=O)c3ccc(N4CCOCC4)cc3)c2c1 [Example 50, N-(Furan-2-ylmethyl)-3-(4-morpholinobenzamido)-1H-indazole-5-carboxamide]
- IC50 [1]: 0.037 µM
- IC50 [2]: 0.0058 µM

SMILES: CN1CCN(c2ccc(C(=O)Nc3n[nH]c4ccc(C(=O)NCc5ccco5)cc34)cc2)CC1 [Example 51, N-(Furan-2-ylmethyl)-3-(4-(4-methylpiperazin-1-yl)benzamido)-1H-indazole-5-carboxamide]
- IC50 [1]: 0.064 µM
- IC50 [2]: 0.0081 µM

SMILES: CC(NC(=O)c1ccc2[nH]nc(NC(=O)c3ccc(N4CCOCC4)cc3)c2c1)c1cccnc1 (centres unmarked) [Example 52, 3-(4-Morpholinobenzamido)-N-(1-(pyridin-3-yl)ethyl)-1H-indazole-5-carboxamide]
- IC50 [1]: > 10 µM
- IC50 [2]: 0.014 µM

SMILES: CC(NC(=O)c1ccc2[nH]nc(NC(=O)c3ccc(N4CCN(C)CC4)cc3)c2c1)c1cccnc1 (centres unmarked) [Example 53, 3-(4-(4-Methylpiperazin-1-yl)benzamido)-N-(1-(pyridin-3-yl)ethyl)-1H-indazole-5-carboxamide]
- IC50 [1]: > 10 µM
- IC50 [2]: 0.021 µM

SMILES: CCC(NC(=O)c1ccc2[nH]nc(NC(=O)c3ccc(N4CCOCC4)cc3)c2c1)c1cccs1 (centres unmarked) [Example 54, 3-(4-Morpholinobenzamido)-N-(1-(thiophen-2-yl)propyl)-1H-indazole-5-carboxamide]
- IC50 [1]: 0.0031 µM
- IC50 [2]: 0.00036 µM

SMILES: CCC(NC(=O)c1ccc2[nH]nc(NC(=O)c3ccc(N4CCN(C)CC4)cc3)c2c1)c1cccs1 (centres unmarked) [Example 55, 3-(4-(4-Methylpiperazin-1-yl)benzamido)-N-(1-(thiophen-2-yl)propyl)-1H-indazole-5-carboxamide]
- IC50 [1]: 0.0027 µM
- IC50 [2]: 0.00093 µM

SMILES: O=C(NCc1cccnc1)c1ccc2[nH]nc(NC(=O)c3ccc(N4CCOCC4)cc3)c2c1 [Example 56, 3-(4-Morpholinobenzamido)-N-(pyridin-3-ylmethyl)-1H-indazole-5-carboxamide 2,2,2-trifluoroacetate]
- IC50 [1]: 0.1 µM
- IC50 [2]: 0.0033 µM

SMILES: CN1CCN(c2ccc(C(=O)Nc3n[nH]c4ccc(C(=O)NCc5cccnc5)cc34)cc2)CC1 [Example 57, 3-(4-(4-Methylpiperazin-1-yl)benzamido)-N-(pyridin-3-ylmethyl)-1H-indazole-5-carboxamide bis(2,2,2-trifluoroacetate)]
- IC50 [1]: 0.14 µM
- IC50 [2]: 0.0012 µM

SMILES: CCCC(NC(=O)c1ccc2[nH]nc(NC(=O)c3ccc(N4CCOCC4)cc3)c2c1)c1cccs1 (centres unmarked) [Example 58, 3-(4-Morpholinobenzamido)-N-(1-(thiophen-2-yl)butyl)-1H-indazole-5-carboxamide]
- IC50 [1]: 0.13 µM
- IC50 [2]: 0.039 µM

SMILES: CCCC(NC(=O)c1ccc2[nH]nc(NC(=O)c3ccc(N4CCN(C)CC4)cc3)c2c1)c1cccs1 (centres unmarked) [Example 59, 3-(4-(4-Methylpiperazin-1-yl)benzamido)-N-(1-(thiophen-2-yl)butyl)-1H-indazole-5-carboxamide]
- IC50 [1]: 0.11 µM
- IC50 [2]: 0.032 µM

SMILES: Cc1ccc(CNC(=O)c2ccc3[nH]nc(NC(=O)c4ccc(N5CCOCC5)cc4)c3c2)s1 [Example 60, N-((5-Methylthiophen-2-yl)methyl)-3-(4-morpholinobenzamido)-1H-indazole-5-carboxamide]
- IC50 [1]: 0.28 µM
- IC50 [2]: 0.034 µM

SMILES: Cc1ccc(CNC(=O)c2ccc3[nH]nc(NC(=O)c4ccc(N5CCN(C)CC5)cc4)c3c2)s1 [Example 61, 3-(4-(4-Methylpiperazin-1-yl)benzamido)-N-((5-methylthiophen-2-yl)methyl)-1H-indazole-5-carboxamide]
- IC50 [1]: 0.23 µM
- IC50 [2]: 0.056 µM

SMILES: CC(C)(NC(=O)c1ccc2[nH]nc(NC(=O)c3ccc(N4CCOCC4)cc3)c2c1)c1ccccc1 [Example 62, 3-(4-Morpholinobenzamido)-N-(2-phenylpropan-2-yl)-1H-indazole-5-carboxamide]
- IC50 [1]: 0.032 µM
- IC50 [2]: 0.011 µM

SMILES: CN1CCN(c2ccc(C(=O)Nc3n[nH]c4ccc(C(=O)NC(C)(C)c5ccccc5)cc34)cc2)CC1 [Example 63, 3-(4-(4-Methylpiperazin-1-yl)benzamido)-N-(2-phenylpropan-2-yl)-1H-indazole-5-carboxamide]
- IC50 [1]: 0.036 µM
- IC50 [2]: 0.0094 µM

SMILES: O=C(NCc1ccc(C(F)(F)F)cc1)c1ccc2[nH]nc(NC(=O)c3ccc(N4CCOCC4)cc3)c2c1 [Example 65, 3-(4-Morpholinobenzamido)-N-(4-(trifluoromethyl)benzyl)-1H-indazole-5-carboxamide]
- IC50 [1]: 1.95 µM
- IC50 [2]: 0.76 µM

SMILES: CN1CCN(c2ccc(C(=O)Nc3n[nH]c4ccc(C(=O)NCc5ccc(C(F)(F)F)cc5)cc34)cc2)CC1 [Example 66, 3-(4-(4-Methylpiperazin-1-yl)benzamido)-N-(4-(trifluoromethyl)benzyl)-1H-indazole-5-carboxamide]
- IC50 [1]: 3.19 µM
- IC50 [2]: 0.98 µM

SMILES: O=C(Nc1n[nH]c2ccc(C(=O)NC3(c4ccccc4)CC3)cc12)c1ccc(N2CCOCC2)cc1 [Example 67, 3-(4-Morpholinobenzamido)-N-(1-phenylcyclopropyl)-1H-indazole-5-carboxamide]
- IC50 [1]: 0.005 µM
- IC50 [2]: 0.003 µM

SMILES: CN1CCN(c2ccc(C(=O)Nc3n[nH]c4ccc(C(=O)NC5(c6ccccc6)CC5)cc34)cc2)CC1 [Example 68, 3-(4-(4-Methylpiperazin-1-yl)benzamido)-N-(1-phenylcyclopropyl)-1H-indazole-5-carboxamide]
- IC50 [1]: 0.0042 µM
- IC50 [2]: 0.0006 µM

SMILES: Cc1cc(CNC(=O)c2ccc3[nH]nc(NC(=O)c4ccc(N5CCOCC5)cc4)c3c2)ccn1 [Example 69, N-((2-Methylpyridin-4-yl)methyl)-3-(4-morpholinobenzamido)-1H-indazole-5-carboxamide]
- IC50 [1]: 2.72 µM
- IC50 [2]: 0.38 µM

SMILES: Cc1cc(CNC(=O)c2ccc3[nH]nc(NC(=O)c4ccc(N5CCN(C)CC5)cc4)c3c2)ccn1 [Example 70, 3-(4-(4-Methylpiperazin-1-yl)benzamido)-N-((2-methylpyridin-4-yl)methyl)-1H-indazole-5-carboxamide]
- IC50 [1]: 1.5 µM
- IC50 [2]: 0.18 µM

SMILES: O=C(NCc1ccc(C(F)(F)F)nc1)c1ccc2[nH]nc(NC(=O)c3ccc(N4CCOCC4)cc3)c2c1 [Example 71, 3-(4-Morpholinobenzamido)-N-((6-(trifluoromethyl)pyridin-3-yl)methyl)-1H-indazole-5-carboxamide]
- IC50 [1]: > 10 µM
- IC50 [2]: 0.44 µM

SMILES: CN1CCN(c2ccc(C(=O)Nc3n[nH]c4ccc(C(=O)NCc5ccc(C(F)(F)F)nc5)cc34)cc2)CC1 [Example 72, 3-(4-(4-Methylpiperazin-1-yl)benzamido)-N-((6-(trifluoromethyl)pyridin-3-yl)methyl)-1H-indazole-5-carboxamide]
- IC50 [1]: 1.83 µM
- IC50 [2]: 0.35 µM

SMILES: Cc1cc(N2CCOCC2)ccc1C(=O)Nc1n[nH]c2ccc(C(=O)NCc3cccs3)cc12 [Example 73, 3-(2-Methyl-4-morpholinobenzamido)-N-(thiophen-2-ylmethyl)-1H-indazole-5-carboxamide]
- IC50 [1]: 0.044 µM
- IC50 [2]: 0.004 µM

SMILES: Cc1cc(N2CCN(C)CC2)ccc1C(=O)Nc1n[nH]c2ccc(C(=O)NCc3cccs3)cc12 [Example 74, 3-(2-Methyl-4-(4-methylpiperazin-1-yl)benzamido)-N-(thiophen-2-ylmethyl)-1H-indazole-5-carboxamide]
- IC50 [1]: 0.079 µM
- IC50 [2]: 0.0044 µM

SMILES: CN1CCN(c2ccc(C(=O)Nc3n[nH]c4ccc(C(=O)C(C(=O)O)c5cccs5)cc34)cc2)CC1 (centres unmarked) [Example 75, 3-(3-(4-(4-Methylpiperazin-1-yl)benzamido)-1H-indazol-5-yl)-3-oxo-2-(thiophen-2-yl)propanoic Acid]
- IC50 [1]: 0.67 µM
- IC50 [2]: 0.18 µM
